Test results: article PMC5843811, “^44Sc for labeling of DOTA- and NODAGA-functionalized peptides: preclinical in vitro and in vivo investigations” (EJNMMI Radiopharmacy and Chemistry, 2016)
Like-named read-outs stand apart in the source and are kept apart here.

Experiments:
[1] = system: U87MG tumor-bearing mice; assay: PET/CT imaging of U87MG tumor-bearing mice; type: in vivo; conditions: 3 h after i.v. injection of ~10 MBq (~1 nmol), one or two mice
Description: The energy window was set to 150–650 keV. […] All static PET scans lasted for 20 min.

[2] = Biodistribution in U87MG tumor-bearing mice; type: in vivo; conditions: female, CD-1 nude (athymic nude), mouse, iv, total radioactivity, i.v. ~5 MBq (~1 nmol), mean ± SD; for tissue to tissue ratio at 0.5 h / tissue uptake at 0.5 h: 30 min p.i.; for tissue to tissue ratio at 2 h / tissue uptake at 2 h: 2 h p.i.; for tissue to tissue ratio at 5 h / tissue uptake at 5 h: 5 h p.i.
Description: Female athymic nude mice (CD-1 nude), age 5–6 weeks, were obtained from Charles River Laboratories, Sulzfeld, Germany. U87MG cells and AR42J-cells were suspended in PBS (5 × 10^6 cells in 100 μL) and subcutaneously inoculated on each shoulder. Two to three weeks later, when the tumor reached a size of about 300–500 mm^3, the mice were used for the in vivo studies.
Biodistribution studies were performed with U87MG tumor and AR42J tumor-bearing mice 2 weeks after tumor cell inoculation. ^44Sc- and ^68Ga-labeled peptides (~5 MBq, ~1 nmol per mouse) were intravenously injected in a volume of 100–200 μL. Mice were sacrificed at 30 min, 2 h and 5 h after injection (p.i.) of the ^44Sc-labeled peptides. Mice which were injected with ^68Ga-labeled peptides were sacrificed at 30 min and 2 h p.i. Selected tissues and organs were collected, weighed, and counted for radioactivity using a γ-counter (Wallac Wizard 1480, Perkin Elmer). The results were listed as a percentage of the injected activity per gram of tissue mass (% IA/g), using counts of a defined volume of the original injection solution counted at the same time. The data were analyzed for significance using a two-way ANOVA test (Graph Pad Prism 6 software, version 6.05). A p-value of < 0.05 was considered statistically significant.

[3] = U87MG tumor / blood, n=3, read-out: Tumor-to-blood ratio
[4] = U87MG tumor / kidneys, n=3, read-out: Tumor-to-kidney ratio
[5] = U87MG tumor / liver, n=3, read-out: Tumor-to-liver ratio
[6] = U87MG tumor, n=3, read-out: Biodistribution, U87MG Tumor
[7] = blood, 5 MBq per mouse, n=3, read-out: Biodistribution, Blood
[8] = bone, 5 MBq per mouse, n=3, read-out: Biodistribution, Bone
[9] = brain, 5 MBq per mouse, n=3, read-out: Biodistribution, Brain
[10] = heart, 5 MBq per mouse, n=3, read-out: Biodistribution, Heart
[11] = intestines, 5 MBq per mouse, n=3, read-out: Biodistribution, Intestines
[12] = kidneys, n=3, read-out: Biodistribution, Kidneys
[13] = liver, n=3, read-out: Biodistribution, Liver
[14] = lung, 5 MBq per mouse, n=3, read-out: Biodistribution, Lung
[15] = muscle, 5 MBq per mouse, n=3, read-out: Biodistribution, Muscle
[16] = pancreas, 5 MBq per mouse, n=3, read-out: Biodistribution, pancreas
[17] = skin, 5 MBq per mouse, n=3, read-out: Biodistribution, Skin
[18] = spleen, 5 MBq per mouse, n=3, read-out: Biodistribution, Spleen
[19] = stomach, 5 MBq per mouse, n=3, read-out: Biodistribution, Stomach

## N=C(N)NCCC[C@@H]1NC(=O)[C@H](CCCCNC(=O)CN2CCN(CC(=O)O)CCN(CC(=O)O)CCN(CC(=O)O)CC2)NC(=O)[C@@H](Cc2ccccc2)NC(=O)[C@H](CC(=O)O)NC(=O)CNC1=O [^44Sc-DOTA-RGD, metal not drawn]
[1]
  PET/CT distribution of radioactivity (in words): clearly less accumulation of radioactivity in the liver than ^68Ga-DOTA-RGD
[2]; [3]
  tissue to tissue ratio at 0.5 h: 4.82 ± 1.6
  tissue to tissue ratio at 2 h: 40.1 ± 15.6
  tissue to tissue ratio at 5 h: 47.2 ± 18
[2]; [4]
  tissue to tissue ratio at 0.5 h: 1.16 ± 0.29
  tissue to tissue ratio at 2 h: 1.77 ± 0.13
  tissue to tissue ratio at 5 h: 1.82 ± 0.21
[2]; [5]
  tissue to tissue ratio at 0.5 h: 0.99 ± 0.14
  tissue to tissue ratio at 2 h: 0.61 ± 0.04
  tissue to tissue ratio at 5 h: 2.9 ± 0.38
[2]; [6]
  tissue uptake at 0.5 h: 4.88 ± 0.67 %ID/g
  tissue uptake at 2 h: 2.99 ± 0.16 %ID/g
  tissue uptake at 5 h: 3 ± 0.38 %ID/g
[2]; [7]
  tissue uptake at 0.5 h: 1.1 ± 0.29 %ID/g
  tissue uptake at 2 h: 0.08 ± 0.03 %ID/g
  tissue uptake at 5 h: 0.07 ± 0.03 %ID/g
[2]; [8]
  tissue uptake at 0.5 h: 1.17 ± 0.07 %ID/g
  tissue uptake at 2 h: 0.56 ± 0.03 %ID/g
  tissue uptake at 5 h: 0.52 ± 0.11 %ID/g
[2]; [9]
  tissue uptake at 0.5 h: 0.12 ± 0.05 %ID/g
  tissue uptake at 2 h: 0.06 ± 0.01 %ID/g
  tissue uptake at 5 h: 0.06 ± 0.01 %ID/g
[2]; [10]
  tissue uptake at 0.5 h: 0.96 ± 0.3 %ID/g
  tissue uptake at 2 h: 0.31 ± 0.04 %ID/g
  tissue uptake at 5 h: 0.3 ± 0.06 %ID/g
[2]; [11]
  tissue uptake at 0.5 h: 1.88 ± 0.18 %ID/g
  tissue uptake at 2 h: 1.01 ± 0.04 %ID/g
  tissue uptake at 5 h: 1.07 ± 0.04 %ID/g
[2]; kidneys, 5 MBq per mouse, n=3, read-out: Biodistribution, Kidneys
  tissue uptake at 2 h: 1.69 ± 0.09 %ID/g
[2]; [12]
  tissue uptake at 0.5 h: 4.44 ± 0.51 %ID/g
  tissue uptake at 5 h: < 2 %ID/g
[2]; [13]
  tissue uptake at 0.5 h: 5.16 ± 0.99 %ID/g
  tissue uptake at 2 h: 4.9 ± 0.13 %ID/g
  tissue uptake at 5 h: ~1 %ID/g
[2]; [14]
  tissue uptake at 0.5 h: 2.17 ± 0.7 %ID/g
  tissue uptake at 2 h: 0.72 ± 0.11 %ID/g
  tissue uptake at 5 h: 0.52 ± 0.04 %ID/g
[2]; [15]
  tissue uptake at 0.5 h: 0.66 ± 0.26 %ID/g
  tissue uptake at 5 h: 0.28 ± 0.04 %ID/g
[2]; [16]
  tissue uptake at 2 h: 0.35 ± 0.03 %ID/g
  tissue uptake at 5 h: 0.39 ± 0.02 %ID/g
[2]; pancreas, n=3, read-out: Biodistribution, pancreas
  tissue uptake at 0.5 h: 0.94 ± 0.49 %ID/g
[2]; [17]
  tissue uptake at 0.5 h: 2.28 ± 0.39 %ID/g
  tissue uptake at 2 h: 1.23 ± 0.2 %ID/g
  tissue uptake at 5 h: 0.97 ± 0.06 %ID/g
[2]; [18]
  tissue uptake at 0.5 h: 3.66 ± 0.87 %ID/g
  tissue uptake at 2 h: 2.82 ± 0.28 %ID/g
  tissue uptake at 5 h: 1.06 ± 0.18 %ID/g
[2]; [19]
  tissue uptake at 0.5 h: 1.78 ± 0.23 %ID/g
  tissue uptake at 2 h: 0.84 ± 0.19 %ID/g
  tissue uptake at 5 h: 0.72 ± 0.07 %ID/g
